20 molecules from patent publication US20260138978A1, “POSITIVE ALLOSTERIC MODULATORS OF THE MUSCARINIC ACETYLCHOLINE RECEPTOR M1” (Vanderbilt University, priority 2022, published 2026) can be followed below.

Test [1] concerns the target T1, human mAChRM1 (Homo sapiens, UniProt P11229).
T1 construct: host or cells: CHO-K1
T1 sequence (P11229 1-460): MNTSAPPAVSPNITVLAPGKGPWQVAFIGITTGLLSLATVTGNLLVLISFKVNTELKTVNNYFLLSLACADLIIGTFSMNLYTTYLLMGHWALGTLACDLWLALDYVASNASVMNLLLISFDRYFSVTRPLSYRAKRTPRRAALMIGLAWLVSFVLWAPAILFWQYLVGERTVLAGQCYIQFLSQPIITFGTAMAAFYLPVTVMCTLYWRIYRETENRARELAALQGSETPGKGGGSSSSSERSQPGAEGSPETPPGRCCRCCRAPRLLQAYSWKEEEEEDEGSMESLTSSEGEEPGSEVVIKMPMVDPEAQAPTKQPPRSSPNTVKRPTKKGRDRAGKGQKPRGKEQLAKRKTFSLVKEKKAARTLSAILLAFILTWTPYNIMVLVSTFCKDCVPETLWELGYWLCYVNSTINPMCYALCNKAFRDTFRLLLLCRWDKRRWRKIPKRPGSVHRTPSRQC
In words: mAChR M1 cell-based functional assay (calcium mobilization), positive allosteric modulator activity: increase in the EC20 acetylcholine response. The note with it: for Emax: PAM mode; for EC50: increase in the EC20 acetylcholine response, read-out: PAM Activity Human M1 EC50. In short, it runs like this: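 Potentiation is scored as the rise in an EC20 acetylcholine-evoked calcium signal across 11-point (1:3) compound series, fitted with a four-parameter logistic equation to give EC50 and Emax. Read-out is Fluo-4 fluorescence ratio in hM1-transfected CHO-K1 cells, measured kinetically on FDSS.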
A general note: Calcium flux is commonly read through the fluorescence of an indicator in the cells.

The target of test [2] is T1, human mAChRM1. Description: mAChR M1 cell-based functional assay (calcium mobilization), agonist activity upon compound addition, Emax relative to acetylcholine maximum. Particulars: for Agonist Activity Human M1 EC50 / EC50: calcium mobilization upon compound addition; for Emax: relative to the maximum for acetylcholine; call rule not given here. The method in brief: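 Emax is given as a percentage of the maximal acetylcholine response, from four-parameter curves of compound-evoked calcium mobilization. Human M1-transfected CHO-K1 cells carried Fluo-4 dye, and compound (11 concentrations, 1:3 steps) was applied at 4 s of a 300 s kinetic fluorescence recording.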

In the case of `Cn1cc2c(-c3ccc(CN4Cc5ncccc5C4=O)nn3)ccc(C(C)(C)O)c2n1` [Compound 112, 6-((6-(7-(2-hydroxypropan-2-yl)-2-methyl-2H-indazol-4-yl)pyridazin-3-yl)methyl)-6,7-dihydro-5H-pyrrolo[3,4-b]pyridin-5-one], on human mAChRM1 [1], the Emax came out at 27% and the EC50 is at least 10 µM. Also, the “Agonist Activity Human M1 EC50” value at human mAChRM1 [2] was “inactive”.
Consider `CC(C)(O)c1ccc(-c2cc(F)c(CN3Cc4ncccc4C3=O)c(F)c2)cc1` [Compound 5, 6-((3,5-difluoro-4′-(2-hydroxypropan-2-yl)-[1,1′-biphenyl]-4-yl)methyl)-6,7-dihydro-5H-pyrrolo[3,4-b]pyridin-5-one], for which, at human mAChRM1 [1], the Emax was 79% and the EC50 turned out to be 1.46 µM. Also, at human mAChRM1 [2], the “Agonist Activity Human M1 EC50” value was “inactive”.
As for `CC(C)(O)c1ccc(-c2cc(F)c(CN3Cc4ncccc4C3=O)c(C3CC3)c2)cc1` [Compound 10, 6-((3-cyclopropyl-5-fluoro-4′-(2-hydroxypropan-2-yl)-[1,1′-biphenyl]-4-yl)methyl)-6,7-dihydro-5H-pyrrolo[3,4-b]pyridin-5-one], on human mAChRM1 [1], the maximal effect (Emax) turned out to be 83% and the concentration for a half-maximal effect (EC50) is 0.813 µM. Further, the “Agonist Activity Human M1 EC50” value at human mAChRM1 [2] is “inactive”.
For `Cn1cc2c(-c3cc(F)c(CN4Cc5nccnc5C4=O)c(F)c3)ccc(C(C)(C)O)c2n1` [Compound 138, 6-(2,6-Difluoro-4-(7-(2-hydroxypropan-2-yl)-2-methyl-2H-indazol-4-yl)benzyl)-6,7-dihydro-5H-pyrrolo[3,4-b]pyrazin-5-one], on human mAChRM1 [1], the Emax came to 67% and the EC50 amounted to 0.281 µM. For the same molecule, on human mAChRM1 [2], the EC50 was at least 10 µM and the maximal response (Emax) came out at 17%.
Take `Cn1cc2cc(-c3cc(F)c(CN4Cc5ncccc5C4=O)c(Cl)c3)cc(C(C)(C)O)c2n1` [Compound 41, 6-(2-chloro-6-fluoro-4-(7-(2-hydroxypropan-2-yl)-2-methyl-2H-indazol-5-yl)benzyl)-6,7-dihydro-5H-pyrrolo[3,4-b]pyridin-5-one]: on human mAChRM1 [1], the Emax was 67% and the EC50 amounted to 0.422 µM. In addition, on human mAChRM1 [2], the EC50 is at least 10 µM and the Emax is 12%.
With `Cc1cc(-c2ccc(C(C)(C)O)cc2)ccc1CN1Cc2ncccc2C1=O` [Compound 12, 6-((4′-(2-hydroxypropan-2-yl)-3-methyl-[1,1′-biphenyl]-4-yl)methyl)-6,7-dihydro-5H-pyrrolo[3,4-b]pyridin-5-one], on human mAChRM1 [1], the Emax was determined as 70% and the 50% effective concentration (EC50) was determined as 5.94 µM. Besides, the “Agonist Activity Human M1 EC50” value at human mAChRM1 [2] is “inactive”.
Taken in the same sequence, the figures for `Cn1cc2c(-c3cc(F)c(CN4Cc5ncccc5C4=O)c(F)c3)ccc(C3(O)CCC(C#N)CC3)c2n1` (stereo not drawn) [Compound 101, 4-(4-(3,5-difluoro-4-((5-oxo-5,7-dihydro-6H-pyrrolo[3,4-b]pyridin-6-yl)methyl)phenyl)-2-methyl-2H-indazol-7-yl)-4-hydroxycyclohexane-1-carbonitrile] were 86%, 0.222 µM and “inactive”.
As for `Cc1cc(-c2cc(C(C)(C)O)cc3nn[nH]c23)cc(F)c1CN1Cc2ncccc2C1=O` [Compound 74, 6-(2-fluoro-4-(5-(2-hydroxypropan-2-yl)-1H-benzo[d][1,2,3]triazol-7-yl)-6-methylbenzyl)-6,7-dihydro-5H-pyrrolo[3,4-b]pyridin-5-one], on human mAChRM1 [1], the Emax worked out at 52% and the EC50 is at least 10 µM. The “Agonist Activity Human M1 EC50” value at human mAChRM1 [2] was “inactive”.
Turning to `Cn1cc2cc(-c3ccc(CN4Cc5ncccc5C4=O)c(F)c3)cc(C(C)(C)O)c2n1` [Compound 34, 6-(2-fluoro-4-(7-(2-hydroxypropan-2-yl)-2-methyl-2H-indazol-5-yl)benzyl)-6,7-dihydro-5H-pyrrolo[3,4-b]pyridin-5-one], the Emax at human mAChRM1 [1] was found to be 65%; on human mAChRM1 [2], 17%. In addition, the results for the EC50 at human mAChRM1 [1] and at human mAChRM1 [2] were 0.326 µM and at least 10 µM, respectively.
On to `Cc1cc(-c2ccc(C(C)(C)O)c3nn(C)cc23)ccc1CN1Cc2cccnc2C1=O` [Compound 132, 6-(4-(7-(2-hydroxypropan-2-yl)-2-methyl-2H-indazol-4-yl)-2-methylbenzyl)-5,6-dihydro-7H-pyrrolo[3,4-b]pyridin-7-one], for which, at human mAChRM1 [1], the Emax amounted to 87% and the EC50 amounted to 0.499 µM. For the same molecule, at human mAChRM1 [2], the EC50 was at least 10 µM and the maximum response (Emax) was 14%.
For `[2H]C1([2H])c2ncccc2C(=O)N1Cc1c(F)cc(-c2ccc(C(C)(C)O)c3nn(C)cc23)cc1N1CCC1` [Compound 151, 6-(2-(azetidin-1-yl)-6-fluoro-4-(7-(2-hydroxypropan-2-yl)-2-methyl-2H-indazol-4-yl)benzyl)-6,7-dihydro-5H-pyrrolo[3,4-b]pyridin-5-one-7,7-d2], on human mAChRM1 [1], the Emax came out at 85% and the EC50 is 1.27 µM. Moreover, the “Agonist Activity Human M1 EC50” value at human mAChRM1 [2] is “inactive”.
Take `[2H]C([2H])([2H])n1cc2c(-c3cc(F)c(CN4Cc5ncccc5C4=O)c(F)c3)ccc(C(C)(C)O)c2n1` [Compound 4, 6-(2,6-difluoro-4-(7-(2-hydroxypropan-2-yl)-2-(methyl-d3)-2H-indazol-4-yl)benzyl)-6,7-dihydro-5H-pyrrolo[3,4-b]pyridin-5-one]: at human mAChRM1 [1], the Emax was 83% and the EC50 was determined as 0.124 µM. Moreover, at human mAChRM1 [2], the EC50 turned out to be 1.91 µM and the Emax is 49%.
As for `CC(C)(O)c1ccc(-c2cc(F)c(CN3Cc4ncccc4C3=O)c(F)c2)c2ccccc12` [Compound 71, 6-(2,6-difluoro-4-(4-(2-hydroxypropan-2-yl)naphthalen-1-yl)benzyl)-6,7-dihydro-5H-pyrrolo[3,4-b]pyridin-5-one], at human mAChRM1 [1], the Emax came out at 64% and the EC50 was at least 10 µM. Also, on human mAChRM1 [2], the “Agonist Activity Human M1 EC50” value was “inactive”.
For the molecule `[2H]C([2H])([2H])n1cc2c(-c3cc(F)c(CN4Cc5ncccc5C4=O)c(C4CC4)c3)ccc(C(C)(C)O)c2n1` (single isomer, unassigned) [Compound 16, 6-(2-cyclopropyl-6-fluoro-4-(7-(2-hydroxypropan-2-yl)-2-(methyl-d3)-2H-indazol-4-yl)benzyl)-6,7-dihydro-5H-pyrrolo[3,4-b]pyridin-5-one], on human mAChRM1 [1], the Emax was 78% and the half-maximal effective concentration (EC50) worked out at 0.066 µM. For the same molecule, at human mAChRM1 [2], the EC50 was 2.06 µM and the Emax came to 54%.
`Cn1cc2c(-c3cc(F)c(CN4Cc5ncccc5C4=O)c(F)c3)ccc(C3(O)CCCC3)c2n1` [Compound 91, 6-(2,6-difluoro-4-(7-(1-hydroxycyclopentyl)-2-methyl-2H-indazol-4-yl)benzyl)-6,7-dihydro-5H-pyrrolo[3,4-b]pyridin-5-one]: the Emax at human mAChRM1 [1] was determined as 72%; on human mAChRM1 [2], 15%. In addition, the EC50 at human mAChRM1 [1] amounted to 0.254 µM; on human mAChRM1 [2] it was 7.03 µM.
For `CC(C)(O)c1ccc(-c2ccc(CN3Cc4cccnc4C3=O)c(F)c2)cc1` [Compound 127, 6-((3-fluoro-4′-(2-hydroxypropan-2-yl)-[1,1′-biphenyl]-4-yl)methyl)-5,6-dihydro-7H-pyrrolo[3,4-b]pyridin-7-one], on human mAChRM1 [1], the maximal response (Emax) came out at 81% and the EC50 is 4.53 µM. In addition, the “Agonist Activity Human M1 EC50” value at human mAChRM1 [2] is “inactive”.
Taken in the same sequence, the figures for `Cn1cc2c(-c3ccc(CN4Cc5cccnc5C4=O)cc3)ccc(C(C)(C)O)c2n1` [Compound 131, 6-(4-(7-(2-hydroxypropan-2-yl)-2-methyl-2H-indazol-4-yl)benzyl)-5,6-dihydro-7H-pyrrolo[3,4-b]pyridin-7-one] were 92%, 0.825 µM and “inactive”.
Take `Cn1cc2c(-c3cc(F)c(CN4Cc5ncccc5C4=O)c(F)c3)ccc(C3(O)CN(C(=O)OC(C)(C)C)C3)c2n1` [Compound 113, tert-butyl 3-(4-(3,5-difluoro-4-((5-oxo-5,7-dihydro-6H-pyrrolo[3,4-b]pyridin-6-yl)methyl)phenyl)-2-methyl-2H-indazol-7-yl)-3-hydroxyazetidine-1-carboxylate]: at human mAChRM1 [1], the Emax was 76% and the EC50 was found to be 0.856 µM. Besides, at human mAChRM1 [2], the EC50 is at least 10 µM and the Emax came out at 13%.
In the case of `CC(C)(O)c1ccc(-c2ccc(CN3Cc4ncccc4C3=O)c(F)c2)cc1` [Compound 13, 6-((3-fluoro-4′-(2-hydroxypropan-2-yl)-[1,1′-biphenyl]-4-yl)methyl)-6,7-dihydro-5H-pyrrolo[3,4-b]pyridin-5-one], on human mAChRM1 [1], the Emax stood at 72% and the EC50 worked out at 2.12 µM. Moreover, the “Agonist Activity Human M1 EC50” value on human mAChRM1 [2] was “inactive”.
For the molecule `Cn1cc2c(-c3cc(F)c(CN4Cc5cccnc5C4=O)c(N4CCC4)c3)ccc(C(C)(C)O)c2n1` [Compound 135, 6-(2-(azetidin-1-yl)-6-fluoro-4-(7-(2-hydroxypropan-2-yl)-2-methyl-2H-indazol-4-yl)benzyl)-5,6-dihydro-7H-pyrrolo[3,4-b]pyridin-7-one], on human mAChRM1 [1], the Emax is 80% and the 50% effective concentration (EC50) is 1.03 µM. In addition, on human mAChRM1 [2], the concentration for a half-maximal effect (EC50) is at least 10 µM and the Emax worked out at 23%.

By Emax is commonly meant the greatest response seen or fitted, relative to the assay's reference. By EC50 is commonly meant the midpoint of the concentration-response curve.
